Laboratory results: US20100160304A1, “AROMATIC SULFONE COMPOUND AS ALDOSTERONE RECEPTOR MODULATOR” (Dainippon Sumitomo Pharma Co., Ltd, priority 2005, published 2010)
pIC50: −log10 of the molar value.

These compounds were tested against T1, aldosterone receptor MR (Rattus norvegicus, UniProt P22199) (assay: Aldosterone receptor binding assay ([3H]aldosterone, soluble fraction of rat kidney)). Conditions: [3H]aldosterone 2 nM, 2 μM RU-486, 4° C. about 18 hours.
T1 construct: the resultant supernatant was being a soluble fraction of the kidney; from tissue; host or cells: kidney of adrenalectomized rat, 105,000 G supernatant (soluble fraction)
T1 sequence (P22199 1-981): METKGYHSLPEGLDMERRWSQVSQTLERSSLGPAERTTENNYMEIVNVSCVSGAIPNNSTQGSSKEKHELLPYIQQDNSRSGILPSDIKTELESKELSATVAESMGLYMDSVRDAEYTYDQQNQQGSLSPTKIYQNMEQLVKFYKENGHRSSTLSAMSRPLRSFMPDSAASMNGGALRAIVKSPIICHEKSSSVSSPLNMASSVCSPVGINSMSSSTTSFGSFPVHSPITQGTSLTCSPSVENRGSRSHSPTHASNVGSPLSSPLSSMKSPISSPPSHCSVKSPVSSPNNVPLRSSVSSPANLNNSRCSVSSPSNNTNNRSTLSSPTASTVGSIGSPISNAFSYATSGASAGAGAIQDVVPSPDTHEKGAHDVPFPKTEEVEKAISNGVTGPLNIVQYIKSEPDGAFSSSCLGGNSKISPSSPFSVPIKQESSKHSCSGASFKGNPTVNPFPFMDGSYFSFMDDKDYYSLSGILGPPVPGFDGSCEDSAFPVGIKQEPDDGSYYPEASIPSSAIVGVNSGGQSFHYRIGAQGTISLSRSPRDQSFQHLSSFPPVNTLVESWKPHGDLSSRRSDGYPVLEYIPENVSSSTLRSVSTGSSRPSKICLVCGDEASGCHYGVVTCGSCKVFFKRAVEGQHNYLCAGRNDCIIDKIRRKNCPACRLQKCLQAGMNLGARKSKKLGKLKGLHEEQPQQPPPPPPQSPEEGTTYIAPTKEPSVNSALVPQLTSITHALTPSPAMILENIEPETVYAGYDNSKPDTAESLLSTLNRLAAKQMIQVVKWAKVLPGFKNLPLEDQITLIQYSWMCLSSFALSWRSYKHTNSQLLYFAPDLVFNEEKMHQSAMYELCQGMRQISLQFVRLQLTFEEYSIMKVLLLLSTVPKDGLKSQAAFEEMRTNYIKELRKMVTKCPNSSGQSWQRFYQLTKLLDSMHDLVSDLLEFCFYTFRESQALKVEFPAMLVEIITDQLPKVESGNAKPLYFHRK
Method: Flank incision (both sides) was subjected to a rat to adrenalectomize. After suturing the rat's incised parts, the rat was again returned to a breeding cage and bred for a duration of 3 to 5 days to collect a kidney from the rat; the collected kidney was homogenized with 0.1 M Tris-HCl, 0.25M sucrose, 0.1M Na2MoO4, 2 mM DTT buffer solution (pH 7.4), the resultant solution was subjected to centrifugal separation at 105,000 G for 30 minutes, and the resultant supernatant was being a soluble fraction of the kidney.
Thereafter, the reactant solution was added with 50 μL of 5% dextran coated charcoal and mixed, and then centrifugated at 3,000 G for 5 minutes. Subsequently, 100 μL of the supernatant was collected and mixed with 3.5 mL of liquid scintillator ACS-II (Amersham) to measure a radioactivity with a liquid scintillation counter (manufactured by Packard, Tri Carb 2700TR). A non-specific binding was determined by adding 2 μM of aldosterone to the reactant solution.
Binding inhibiting rate (%)=10−[(B−N)/(B0−N)]×100
B: Binding amount of the marker ligand in the co-presence of the tested substance and marker ligand,
B0: Binding amount of the marker ligand in the absence of the tested substance, and
N: Binding amount of the marker ligand in the presence of excess aldosterone (2 μM).

| pIC50 | SMILES |
| --- | --- |
| 6.22 | CC1=CC(C)(C)Nc2ccc(NS(=O)(=O)c3ccccc3F)cc21 [Example 67, 2-Fluoro-N-(2,2,4-trimethyl-1,2-dihydroquinolin-6-yl)benzenesulfonamide] |
| 6.52 | CC1=CC(C)(C)Nc2ccc(OS(=O)(=O)c3ccc(C)cc3)cc21 [Example 51, 2,2,4-Trimethyl-1,2-dihydroquinolin-6-yl 4-methylbenzenesulfonate] |
| 6.92 | CC1=CC(C)(C)Nc2ccc(NS(=O)(=O)c3ccsc3)cc21 [Example 74, N-(2,2,4-Trimethyl-1,2-dihydroquinolin-6-yl)thiophene-3-sulfonamide] |
| 6.52 | CC(=O)N(c1ccc2c(c1)C(C)=CC(C)(C)N2)S(=O)(=O)c1ccc(Cl)s1 [Example 89, N-[(5-Chloro-2-thienyl)sulfonyl]-N-(2,2,4-trimethyl-1,2-dihydroquinolin-6-yl)acetamide] |
| 6.30 | CC(=O)N(c1ccc2c(c1)C(C)=CC(C)(C)N2)S(=O)(=O)c1ccccc1 [Example 87, N-(Phenylsulfonyl)-N-(2,2,4-trimethyl-1,2-dihydroquinolin-6-yl)acetamide] |
| 6.52 | CC(=O)N(c1ccc2c(c1)C(C)=CC(C)(C)N2)S(=O)(=O)c1ccc(Cl)cc1 [Example 88, N-[(4-Chlorophenyl)sulfonyl]-N-(2,2,4-trimethyl-1,2-dihydroquinolin-6-yl) acetamide] |
| 6.52 | CC1=CC(C)(C)Nc2ccc(NS(=O)(=O)c3ccc(C(F)(F)F)cc3)cc21 [Example 70, 4-(Trifluoromethyl)-N-(2,2,4-trimethyl-1,2-dihydroquinolin-6-yl)benzenesulfonamide] |
| 7.54 | CC1=CC(C)(C)Nc2ccc(CS(=O)(=O)c3ccc(C)cc3)cc21 [Example 57, 2,2,4-Trimethyl-6-{[(4-methylphenyl)sulfonyl]methy}-1,2-dihydroquinoline] |
| 6.14 | CC1=CC(C)(C)Nc2ccc(OS(=O)(=O)c3ccc4ccccc4c3)cc21 [Example 52, 2,2,4-Trimethyl-1,2-dihydroquinolin-6-yl naphthalene-2-sulfonate] |
| 6.57 | CC(=O)N(c1ccc2c(c1)C(C)=CC(C)(C)N2)S(=O)(=O)c1ccc(C)cc1 [Example 86, N-[(4-Methylphenyl)sulfonyl]-N-(2,2,4-trimethyl-1,2-dihydroquinolin-6-yl)acetamide] |

Continued, compound first:

| SMILES | pIC50 |
| --- | --- |
| C#CC1(C)OC(=S)Nc2ccc(NS(=O)(=O)c3cccs3)cc21 (centres unmarked) [Example 48, N-(4-Ethynyl-4-methyl-2-thioxo-1,4-dihydro-2H-3,1-benzoxazin-6-yl)thiophene-2-sulfonamide] | 6.49 |
| Cc1ccc(S(=O)(=O)Oc2ccc(NS(C)(=O)=O)cc2)cc1 [Example 105, 4-[(Methylsulfonyl)amino]phenyl 4-methylbenzenesulfonate] | 5.18 |
| Cc1ccc(S(=O)(=O)Nc2ccc3c(c2)C(C)(C)OC(=S)N3)cc1 [Example 22, N-(4,4-Dimethyl-2-thioxo-1,4-dihydro-2H-3,1-benzoxazin-6-yl)-4-methylbenzenesulfonamide] | 6.68 |
| CC1(C)OC(=S)Nc2ccc(OS(=O)(=O)c3ccc4ccccc4c3)cc21 [Example 14, 4,4-Dimethyl-2-thioxo-1,4-dihydro-2H-3,1-benzoxazin-6-yl naphthalene-2-sulfonate] | 6.33 |
| CC1(C)OC(=S)Nc2ncc(NS(=O)(=O)c3cccs3)cc21 [Example 41, N-(4,4-Dimethyl-2-thioxo-1,4-dihydro-2H-pyrido[2,3-d][1,3]oxazin-6-yl)thiophene-2-sulfonamide] | 5.26 |
| CC1(C)OC(=O)Nc2ccc(NS(=O)(=O)c3cccs3)cc21 [Example 23, N-(4,4-Dimethyl-2-oxo-1,4-dihydro-2H-3,1-benzoxazin-6-yl)thiophene-2-sulfonamide] | 5.62 |
| CC1=CC(C)(C)Nc2ccc(NS(=O)(=O)c3cccnc3)cc21 [Example 73, N-(2,2,4-Trimethyl-1,2-dihydroquinolin-6-yl)pyridine-3-sulfonamide] | 6.68 |
